Positions of bridges follow the written chain, without caps; N, C: chain ends. Non-standard residues stand in square brackets, D forms with d. No end group written: not given here. IRDye‑680LT = infrared dye IRDye-680LT, conjugated via NHS ester
Tests used:
GC-C receptor = GC-C receptor (Homo sapiens, UniProt P25092); settings: cited from earlier work
[1] = tested on: cGMP production in T84 cells; test: T84 cGMP bioassay; assay type: cell-based, Human; settings: FIG. 6
[2] = tested on: colonic adenomas in Apc^+/Min-FCCC mice; test: Ex-vivo imaging of excised colons incubated with probe (IVIS Spectrum); settings: 0.1 μM probe; for signal / ability to detect polyps in older mice: 4 and 6 month old mice
Method: Ex-vivo and in vivo studies have been performed to evaluate the specificity of the IR680-SP-333 probe for colonic adenomas in Apc^+/Min-FCCC mice. IR680-SP-333 was prepared in DMEM/F-12 media containing 20 mM sodium phosphate buffer and 3% BSA, pH6; the same media used for in vitro experiments. Based on data from an initial pilot study, incubation of tissue with 0.1 μM IR680-SP-333 for 30 min at 37° C. was selected as the optimal condition for ex-vivo studies. Epifluorescence images were acquired as follows: excitation wavelength=640 nm, detection wavelength=700 nm, exposure time=auto-3 min, F-stop=1, binning=1 (“small” setting), field of view=0.3 cm (setting “C”). […] To eliminate the contribution of the age of mouse to the observed heterogeneity in probe binding, an in depth imaging study was performed in mice of various ages (2, 3, 4, 5 and 6 months). In this ex-vivo study, mice were euthanized and colons excised, opened longitudinally, and washed with PBS. Colon tissues were incubated with 0.1 μM IR680-SP-333 at 37° C. for 30 min. After incubation, the tissues were washed with PBS (4 times) and imaged in the IVIS Spectrum, using the settings described above. Careful review of the resulting images lead to three major conclusions: 1) the binding of the IR680-SP-333 probe to colorectal polyps is size dependent. […] 2) because the signal varied with polyp size, binding was enhanced in mice 2-3 months of age where the majority of colorectal polyps were smaller (≤3 mm in diameter) (FIG. 7). As the mice aged, the colorectal polyps increased in size and the ability of probe to detect the polyps decreased (FIG. 8). […] Because the incidence of colorectal polyps is higher in mice 3 months (70%) vs. 2 months (45%) of age, a decision was made to use mice 10-12 weeks of age for all subsequent in vivo IR680-SP-333 analyses to minimize the number of animal that needed to be screened for tumors. 3) signal of the IR680-SP-333 probe was high at the proximal and distal ends of the colon even in the absence of polyps. Similar nonspecific binding of unknown origin has been observed in previous experiments with independent probes at these same extreme regions.

[3] = tested on: colon polyps in Apc^+/Min-FCCC mice; test: In vivo gavage of probe, imaging of excised colon and histopathology
Method: Following the ex-vivo binding studies, an experiment was performed to assess the ability of the probe to remain intact as it passed through the GI tract and bind to colonic lesions. In this in vivo experiment, Apc^+/Min-FCCC mice (10-12 wks of age) were subjected to a colonoscopic examination prior to probe administration, according to a protocol established previously (Hensley, Gastrointestinal Endoscopy group). Mice with confirmed colon polyps were randomized to receive IR680-SP-333 at 0.5 or 0.05 mg/kg body weight by gavage. Prior to probe administration, mice were fasted overnight and provided Pedialyte ad libitum for bowel cleansing. Mice were gavaged with IR680-SP-333 and euthanized at 30, 60, 90 and 120 min post treatment. At the time of euthanasia, the colon was excised, opened its entire length and rinsed with saline. Each colon was then placed on a plastic ruler and imaged in an IVIS Spectrum system using the settings described above for the ex-vivo experiments. Immediately following image acquisition, the entire colon was placed intact on a plastic ruler in 10% normal buffered formalin and areas positive and negative for probe signal were collected for histopathological evaluation. […] Evaluation of additional doses of IR680-SP-333 probe (0.0158 and 0.158 mg/kg body weight) confirmed that gavaging mice with IR680-SP-333 at 0.05 mg/kg body weight and imaging 30 min post treatment yielded the greatest differential in signal between the non-neoplastic and neoplastic colonic mucosa.
Colon tissues with strong signal (tumor) and corresponding background signal (nonneoplastic control) were processed for histopathology evaluation and reviewed bin a blinded manner. […] This heterogeneity made it impossible to standardize the epi-fluorescence scale and classify positive and negative signals based solely on the epi-fluorescence value. […] In FIG. 12 (mouse ID 12201), strong signal is localized to a hyperplastic polyp (HP); an area of high proliferation; providing additional support for the lack of correlation between the intensity of the probe signal and size/type of colonic lesion. […] The probe IR-680-SP-333 may also be useful in detection of colorectal metastasis in liver and other organs.

[4] = target: T1, GC-C binding sites on T84 cells (Homo sapiens, UniProt P25092); test: Binding of IR680-SP-333 probe to suspension of T84 cells; settings: 0.5 μM probe, 4° C. for 30 mins, FIG. 4
T1 construct: endogenous in cells; host or cells: T84 human colon carcinoma cells
T1 sequence (P25092 24-1073): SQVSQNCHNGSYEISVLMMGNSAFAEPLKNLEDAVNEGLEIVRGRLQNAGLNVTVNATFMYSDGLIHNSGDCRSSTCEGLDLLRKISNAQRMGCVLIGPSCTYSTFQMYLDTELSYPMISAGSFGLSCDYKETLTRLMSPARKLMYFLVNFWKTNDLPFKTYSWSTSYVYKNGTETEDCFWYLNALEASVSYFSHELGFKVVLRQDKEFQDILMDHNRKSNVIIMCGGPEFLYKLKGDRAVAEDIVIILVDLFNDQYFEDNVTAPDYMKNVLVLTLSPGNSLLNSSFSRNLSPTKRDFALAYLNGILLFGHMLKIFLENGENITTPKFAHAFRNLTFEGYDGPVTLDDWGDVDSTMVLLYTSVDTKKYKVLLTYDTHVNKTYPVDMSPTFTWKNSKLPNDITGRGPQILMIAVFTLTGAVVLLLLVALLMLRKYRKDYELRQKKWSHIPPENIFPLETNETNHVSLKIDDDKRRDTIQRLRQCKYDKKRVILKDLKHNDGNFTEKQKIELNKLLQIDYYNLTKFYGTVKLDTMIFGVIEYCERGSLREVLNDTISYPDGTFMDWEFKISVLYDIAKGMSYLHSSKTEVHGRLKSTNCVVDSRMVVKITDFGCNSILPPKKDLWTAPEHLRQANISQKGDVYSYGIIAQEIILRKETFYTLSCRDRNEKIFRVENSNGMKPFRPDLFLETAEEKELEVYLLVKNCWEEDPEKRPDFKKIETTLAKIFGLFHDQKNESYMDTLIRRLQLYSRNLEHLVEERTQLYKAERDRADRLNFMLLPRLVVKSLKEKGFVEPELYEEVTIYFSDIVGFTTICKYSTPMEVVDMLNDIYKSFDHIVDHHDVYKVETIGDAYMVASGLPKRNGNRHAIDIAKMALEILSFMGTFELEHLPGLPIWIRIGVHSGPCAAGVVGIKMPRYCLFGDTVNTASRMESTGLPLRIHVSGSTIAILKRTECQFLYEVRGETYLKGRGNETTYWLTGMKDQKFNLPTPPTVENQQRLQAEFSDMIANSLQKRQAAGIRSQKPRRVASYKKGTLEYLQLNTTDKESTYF
Method: Next, we performed binding of probe to suspension of T84 cells. In this set of experiments, cells cultured for 9 days in T75 flasks were harvested by scraping and suspended in pre-chilled binding media. Different densities of cells were incubated with […] IR680-SP-333 (final concentration 0.5 μM) in pre-chilled binding buffer at 4° C. for 30 mins. The IR680-SP-333 was diluted with unlabeled SP-333 to adjust the final concentration of probe 0.5 μM. This dilution was necessary to saturate the available GC-C binding sites on 40,000 cells.

[5] = target: T2, GC-C expressed on T84 cells (Homo sapiens, UniProt P25092); test: Binding of IR680-SP-333 probe to T84 cell monolayer; settings: 4° C. for 1 hour, FIG. 3
T2 construct: endogenous in cells; host or cells: T84 human colon carcinoma cells
T2 sequence (P25092 24-1073): as above
Method: Experiments were performed to establish binding conditions to reduce background and to enhance specific binding. These experiments concluded that the age of T84 monolayer should be between 7-9 days after seeding to allow maximum expression of GC-C on the cell surface. Next, we established the optimal binding buffer, incubation time to allow binding of probe to T84 cells and temperature of binding incubation to minimize endocytosis. The optimal conditions for specific binding of probe to T84 cells are briefly described here. Human T84 cells were grown to confluence in 96 black clear bottom plates. Media was aspirated and the plate was blocked with 200 ul/well of blocking buffer (DMEM/F12+150 mM NaCl+20 mM Sodium phosphate dibasic, pH was adjusted to 6.0 with 1N HCl) for 2 hours in cell culture incubator at 37° C.

Sequence of GC-C receptor (P25092 24-1073): as above

## Asn^1-Asp^2-Asp^3-Cys^4-Glu^5-Leu^6-Cys^7-Val^8-Asn^9-Val^10-Ala^11-Cys^12-Thr^13-Gly^14-Cys^15-Leu^16 (NDDCELCVNVACTGCL; disulfide 4-12, 7-15) [Uroguanylin, a physiological ligand of GC-C, a 16 amino acid peptide with two disulfide bonds]
GC-C receptor
  affinity for the GC-C receptor: nanomolar affinity

## IR680-SP-333: SP-333 labeled at the amine group with IRDye-680LT NHS ester; bioactive infrared fluorescence probe ({IRDye‑680LT}-[dN]DECELCVNVACTGC[dL]; disulfide 4-12, 7-15)
[1]
  ability to stimulate cGMP production in T84 cells: active
  level of cGMP production compared to unconjugated SP-333: slightly lower level
[2]; 30 min
  signal at the proximal and distal ends of the colon in the absence of polyps: high
[2]; 30 min, FIG. 8
  signal / ability to detect polyps in older mice: decreased
[2]; 30 min, FIG. 8, listed as SP-333-IR680
  signal / ability to detect polyps in older mice: weaker than that observed in younger animals
[2]; 30 min, polyps mostly ≤3 mm, FIG. 7
  binding in mice 2-3 months of age: enhanced
[2]; 30 min at 37° C.
  binding to colorectal polyps versus surrounding normal colonic mucosa: greater binding to colorectal polyps than to the surrounding normal colonic mucosa
  binding to every colorectal polyp: did not bind to every colorectal polyp
[2]; 30 min at 37° C., FIG. 7
  probe signal by polyp size: higher in polyps ≤3 mm in diameter than in those with a diameter >4 mm
[3]; gavage 0.05 mg/kg body weight, imaged 30 min post treatment, FIG. 9A
  differential between signal of colorectal polyps and background of adjacent normal colonic mucosa: best differential
[3]; gavage 0.5 mg/kg body weight, FIG. 9B
  nonspecific signal at proximal and distal ends of colon: increased significantly
[3]; gavage 0.5 mg/kg body weight, FIG. 9B, 0.5 mg/kg
  differential between tumor and normal tissue at higher dose: failed to improve the difference in signal between neoplastic and nonneoplastic mucosa significantly
[3]; gavage 0.5 mg/kg body weight, FIG. 9B, listed as SP-333-IR680, 0.5 mg/kg
  differential between tumor and normal tissue at higher dose: failed to improve the differential between tumor and normal tissue
[3]; gavage, ≥90 min between dosing and imaging, FIG. 9C
  nonspecific binding at longer interval between dosing and imaging: increase in nonspecific binding
[3]; histopathology, blinded review
  correlation of probe signal intensity with tumor size or histological subtype: did not correlate with either tumor size or the histological subtype of lesion
[3]; mouse ID 12201, FIG. 12
  probe signal in hyperplastic polyp (HP): strong signal
[3]; mouse ID 12276, FIG. 11
  probe signal in flat/indeterminate adenoma: weaker signal
  probe signal in small gross lesion (1-mm in size): very strong probe signal
[3]; mouse ID 12281, FIG. 10
  probe signal in adenoma: intermediate signal intensity
  probe signal in areas of hyperproliferation (HP): strongest probe signal
  probe signal in micro-adenoma compared to surrounding normal colonic mucosa: slight increase in signal
[3]; same dose and same post treatment time interval
  background signal in normal colonic mucosa: varied between mice receiving the same treatment regimen
[4]
  binding of probe to cell suspension in the presence of 100-fold excess of SP-333: abolished
[5]
  binding of probe in the presence of 100-fold excess of unlabeled SP-333: considerably reduced
  binding of probe to T84 cells (fluorescence ex680, em715): specifically bound to GC-C expressed on T84 cells in a dose-dependent manner
